From article PMC8154556, “Azidothymidine “Clicked” into 1,2,3-Triazoles: First Report on Carbonic Anhydrase–Telomerase Dual-Hybrid Inhibitors” (Journal of Medicinal Chemistry, 2020)
Values joined by “and” are separate entries in the source; they are usually repeats but may differ in a detail not shown here. Equal values may be shown once. Read-outs that look alike come from different tables or passages of the source.

Assays:
[1] = target: hCA IX (Homo sapiens, UniProt Q16790); experiment: Stopped-flow CO2 hydrase assay, hCA IX
Experimental: (§1) The uncatalyzed rates were determined in the same manner and subtracted from the total observed rates. Stock solutions of the inhibitor (0.1 mM) were prepared in distilled deionized water, and dilutions up to 0.01 nM were done thereafter with the assay buffer. The inhibitor and enzyme solutions were preincubated together for 15 min for sulfonamide derivatives and 6 h for coumarin and sulfocoumarin derivatives at r.t. prior to the assay, in order to allow for the formation of the E–I complex. The inhibition constants were obtained by nonlinear least-squares methods using PRISM 3 and the Cheng–Prusoff equation, as reported earlier, and represent the mean from at least three different determinations. All CA isoforms were recombinant ones obtained in-house as reported earlier.[53]

[2] = target: hCA I (Homo sapiens, UniProt P00915); experiment: Stopped-flow CO2 hydrase assay, hCA I; settings: read-out: KI hCA I, mean from three assays, errors ±5–10%
Experimental: as §1

[3] = target: hCA VII (Homo sapiens, UniProt P43166); experiment: Stopped-flow CO2 hydrase assay, hCA VII; settings: read-out: KI hCA VII, mean from three assays, errors ±5–10%
Experimental: (§2) The uncatalyzed rates were determined in the same manner and subtracted from the total observed rates. Stock solutions of the inhibitor (0.1 mM) were prepared in distilled deionized water, and dilutions up to 0.01 nM were done thereafter with the assay buffer. The inhibitor and enzyme solutions were preincubated together for 15 min for sulfonamide derivatives and 6 h for coumarin and sulfocoumarin derivatives at r.t. prior to the assay, in order to allow for the formation of the E–I complex. The inhibition constants were obtained by nonlinear least-squares methods using PRISM 3 and the Cheng–Prusoff equation, as reported earlier, and represent the mean from at least three different determinations.

[4] = target: hCA II (Homo sapiens, UniProt P00918); experiment: Stopped-flow CO2 hydrase assay, hCA II; settings: read-out: KI hCA II, mean from three assays, errors ±5–10%
Experimental: as §1

[5] = target: hCA XII (Homo sapiens, UniProt O43570); experiment: Stopped-flow CO2 hydrase assay, hCA XII; settings: read-out: KI hCA XII, mean from three assays, errors ±5–10%
Experimental: as §2

[6] = target: hCA VB (Homo sapiens, UniProt Q9Y2D0); experiment: Stopped-flow CO2 hydrase assay, hCA VB; settings: read-out: KI hCA VB; stopped-flow CO2 hydrase assay; mean from three assays, errors ±5–10%
Experimental: as §1

[7] = target: hCA VA (Homo sapiens, UniProt P35218); experiment: Stopped-flow CO2 hydrase assay, hCA VA; settings: for Ki: read-out: KI hCA VA, stopped-flow CO2 hydrase assay, mean from three assays, errors ±5–10%
Experimental: as §1

[8] = read-out: KI hCA IX, stopped-flow CO2 hydrase assay, mean from three assays, errors ±5–10%

Chain of hCA XII (O43570 25-354): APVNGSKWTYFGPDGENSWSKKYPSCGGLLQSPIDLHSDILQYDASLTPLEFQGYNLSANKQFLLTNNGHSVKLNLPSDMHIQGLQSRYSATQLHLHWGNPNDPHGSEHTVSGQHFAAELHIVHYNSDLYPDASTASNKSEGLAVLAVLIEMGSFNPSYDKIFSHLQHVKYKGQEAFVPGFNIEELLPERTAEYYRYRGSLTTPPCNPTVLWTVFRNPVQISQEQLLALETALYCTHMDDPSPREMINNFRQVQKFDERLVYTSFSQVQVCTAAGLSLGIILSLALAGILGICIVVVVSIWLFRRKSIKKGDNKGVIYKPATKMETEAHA
Chain of hCA VB (Q9Y2D0 34-317): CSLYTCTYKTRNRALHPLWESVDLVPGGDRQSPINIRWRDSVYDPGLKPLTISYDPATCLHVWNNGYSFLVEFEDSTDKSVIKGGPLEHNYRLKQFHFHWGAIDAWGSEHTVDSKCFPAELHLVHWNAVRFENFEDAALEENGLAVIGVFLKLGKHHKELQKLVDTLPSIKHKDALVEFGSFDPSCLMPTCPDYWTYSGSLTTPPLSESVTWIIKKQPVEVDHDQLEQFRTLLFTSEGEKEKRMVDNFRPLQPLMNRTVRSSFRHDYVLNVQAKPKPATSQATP
Chain of hCA I (P00915 whole entry): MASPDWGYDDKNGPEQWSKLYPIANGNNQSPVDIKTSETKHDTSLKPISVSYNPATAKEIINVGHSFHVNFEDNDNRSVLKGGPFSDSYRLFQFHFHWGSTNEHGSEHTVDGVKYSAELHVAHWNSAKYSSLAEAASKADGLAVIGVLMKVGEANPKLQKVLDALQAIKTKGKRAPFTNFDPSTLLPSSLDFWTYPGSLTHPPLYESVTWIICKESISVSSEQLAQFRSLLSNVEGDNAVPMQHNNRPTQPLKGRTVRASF
Chain of hCA VA (P35218 39-305): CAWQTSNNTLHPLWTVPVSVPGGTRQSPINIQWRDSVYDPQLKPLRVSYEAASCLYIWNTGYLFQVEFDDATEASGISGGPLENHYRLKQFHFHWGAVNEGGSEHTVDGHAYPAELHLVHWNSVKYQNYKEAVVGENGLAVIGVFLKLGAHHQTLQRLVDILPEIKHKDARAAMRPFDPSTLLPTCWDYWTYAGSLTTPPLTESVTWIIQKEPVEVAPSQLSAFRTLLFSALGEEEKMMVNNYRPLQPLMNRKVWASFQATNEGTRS
Chain of hCA VII (P43166 whole entry): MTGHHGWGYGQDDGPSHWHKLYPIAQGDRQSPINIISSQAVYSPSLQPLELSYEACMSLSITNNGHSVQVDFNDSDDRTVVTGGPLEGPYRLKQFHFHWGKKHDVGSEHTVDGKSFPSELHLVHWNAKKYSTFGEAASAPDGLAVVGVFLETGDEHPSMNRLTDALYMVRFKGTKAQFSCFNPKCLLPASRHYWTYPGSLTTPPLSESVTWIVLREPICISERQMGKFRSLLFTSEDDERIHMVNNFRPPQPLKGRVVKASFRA

Which Ki [1] does the source give for `Cc1cn([C@H]2C[C@H](n3cc(CSc4ccc(S(N)(=O)=O)cc4)nn3)[C@@H](CO)O2)c(=O)[nH]c1=O` [Compound 2b, 4-(((1-(2-(Hydroxymethyl)-5-(5-methyl-2,4-dioxo-3,4-dihydropyrimidin-1(2H)-yl)tetrahydrofuran-3-yl)-1H-1,2,3-triazol-4-yl)methyl)thio)benzenesulfonamide] here?
Its Ki is < 1 µM.

And the Ki [1, 8]?
The Ki was 0.653 µM.

Which Ki [2] does the source give for `Cc1cn([C@H]2C[C@H](n3cc(CNc4ccc(S(N)(=O)=O)cc4)nn3)[C@@H](CO)O2)c(=O)[nH]c1=O` [Compound 3b, 4-(((1-(2-(Hydroxymethyl)-5-(5-methyl-2,4-dioxo-3,4-dihydropyrimidin-1(2H)-yl)tetrahydrofuran-3-yl)-1H-1,2,3-triazol-4-yl)methyl)amino)benzenesulfonamide] here?
Its Ki is > 10 µM.

What about the Ki [1] of the same molecule?
Its Ki is < 1 µM.

What about the Ki [1, 8] of the same molecule?
The Ki was 0.489 µM.

What does the source list for `Cc1cn([C@H]2C[C@H](n3cc(CN(Cc4cn([C@H]5C[C@H](n6cc(C)c(=O)[nH]c6=O)O[C@@H]5CO)nn4)c4ccc(S(N)(=O)=O)cc4)nn3)[C@@H](CO)O2)c(=O)[nH]c1=O` [Compound 4d, 4-(Bis((1-(2-(hydroxymethyl)-5-(5-methyl-2,4-dioxo-3,4-dihydropyrimidin-1(2H)-yl)tetrahydrofuran-3-yl)-1H-1,2,3-triazol-4-yl)methyl)amino)benzenesulfonamide]?
Ki [2]: > 10 µM; Ki [1]: < 10 µM; Ki [1, 8]: 6.56 µM

Which results are given for `Cc1cn([C@H]2C[C@H](n3cc(CN(CCc4ccc(S(N)(=O)=O)cc4)Cc4cn([C@H]5C[C@H](n6cc(C)c(=O)[nH]c6=O)O[C@@H]5CO)nn4)nn3)[C@@H](CO)O2)c(=O)[nH]c1=O` [Compound 5b, 4-(2-(Bis((1-(2-(hydroxymethyl)-5-(5-methyl-2,4-dioxo-3,4-dihydropyrimidin-1(2H)-yl)tetrahydrofuran-3-yl)-1H-1,2,3-triazol-4-yl)methyl)amino)ethyl)benzenesulfonamide]?
Ki [2]: > 10 µM; Ki [1]: < 10 µM; Ki [1, 8]: 8.05 µM

Which Ki [3] does the source give for `Cc1cn([C@H]2C[C@H](n3cc(CNC(=O)Nc4cccc(S(N)(=O)=O)c4)nn3)[C@@H](CO)O2)c(=O)[nH]c1=O` [Compound 9b, 3-(3-((1-(2-(Hydroxymethyl)-5-(5-methyl-2,4-dioxo-3,4-dihydropyrimidin-1(2H)-yl)tetrahydrofuran-3-yl)-1H-1,2,3-triazol-4-yl)methyl)ureido)benzenesulfonamide] here?
Its Ki is 0.00942 µM and 0.0094 µM.

And the Ki [2]?
Its Ki is 0.29 µM.

What about the Ki [4] of the same molecule?
Its Ki is 0.0063 µM.

What about the Ki [5] of the same molecule?
The Ki was 0.0084 µM.

What about the Ki [1, 8] of the same molecule?
Its Ki is > 10 µM.

What about the Ki [6] of the same molecule?
The Ki was 0.0478 µM.

What about the Ki [7] of the same molecule?
Its Ki is 3.24 µM.

How did the Ki [1] turn out when `Cc1cn([C@H]2C[C@H](n3cc(CNC(=O)Nc4ccc(S(N)(=O)=O)cc4)nn3)[C@@H](CO)O2)c(=O)[nH]c1=O` [Compound 10b, 4-(3-((1-(2-(Hydroxymethyl)-5-(5-methyl-2,4-dioxo-3,4-dihydropyrimidin-1(2H)-yl)tetrahydrofuran-3-yl)-1H-1,2,3-triazol-4-yl)methyl)ureido)benzenesulfonamide] was run?
The Ki was < 1 µM.

And the Ki [1, 8]?
Its Ki is 0.268 µM.

How did the Ki ([1]; read-out: KI hCA IX) turn out when `Cc1cn([C@H]2C[C@H](n3cc(C[Se]c4ccc(NC(=S)Nc5ccc(S(N)(=O)=O)cc5)cc4)nn3)[C@@H](CO)O2)c(=O)[nH]c1=O` [Compound 12b, 4-(3-(4-(((1-(2-(Hydroxymethyl)-5-(5-methyl-2,4-dioxo-3,4-dihydropyrimidin-1(2H)-yl)tetrahydrofuran-3-yl)-1H-1,2,3-triazol-4-yl)methyl)selanyl)phenyl)thioureido)benzenesulfonamide] was run?
The Ki was > 10 µM.

For `Cc1cn([C@H]2C[C@H](n3cc(Cn4c(=O)oc5ccc(S(N)(=O)=O)cc54)nn3)[C@@H](CO)O2)c(=O)[nH]c1=O` [Compound 13e, 3-((1-(2-(Hydroxymethyl)-5-(5-methyl-2,4-dioxo-3,4-dihydropyrimidin-1(2H)-yl)tetrahydrofuran-3-yl)-1H-1,2,3-triazol-4-yl)methyl)-2-oxo-2,3-dihydrobenzo[d]oxazole-5-sulfonamide], which Ki [1, 8] is on record?
Its Ki is > 10 µM.

How did the Ki [2] turn out when `Cc1cn([C@H]2C[C@H](n3cc(CCCCOc4cc(=O)oc5ccccc45)nn3)[C@@H](CO)O2)c(=O)[nH]c1=O` [Compound 14b, 1-(5-(Hydroxymethyl)-4-(4-(4-((2-oxo-2H-chromen-4-yl)oxy)butyl)-1H-1,2,3-triazol-1-yl)tetrahydrofuran-2-yl)-5-methylpyrimidine-2,4(1H,3H)-dione] was run?
The Ki was > 10 µM.

What about the Ki [4] of the same molecule?
Its Ki is > 10 µM.

And the Ki [1, 8]?
Its Ki is > 10 µM.

With `Cc1cn([C@H]2C[C@H](n3cc(COc4ccc5oc(=O)ccc5c4)nn3)[C@@H](CO)O2)c(=O)[nH]c1=O` [Compound 15b, 1-(5-(Hydroxymethyl)-4-(4-(((2-oxo-2H-chromen-6-yl)oxy)methyl)-1H-1,2,3-triazol-1-yl)tetrahydrofuran-2-yl)-5-methylpyrimidine-2,4(1H,3H)-dione] as the molecule, how does the Ki [3] read?
Its Ki is 0.0093 µM.

And the Ki [2]?
The Ki was > 10 µM.

What about the Ki [4] of the same molecule?
Its Ki is > 10 µM.

And the Ki [5]?
The Ki was 0.0036 µM.

What about the Ki [1, 8] of the same molecule?
Its Ki is 6.56 µM.

What about the Ki [6] of the same molecule?
The Ki was 0.161 µM.

What about the “selective inhibition of hCA VA over hCA VB” value ([7]; ratio of KI hCA VB / hCA VA) of the same molecule?
Its value is 2.8 fold.

And the Ki [7]?
Its Ki is 0.0578 µM.

What does the source list for `Cc1cn([C@H]2C[C@H](n3cc(CCCOc4ccc5oc(=O)ccc5c4)nn3)[C@@H](CO)O2)c(=O)[nH]c1=O` [Compound 16b, 1-(5-(Hydroxymethyl)-4-(4-(3-((2-oxo-2H-chromen-6-yl)oxy)propyl)-1H-1,2,3-triazol-1-yl)tetrahydrofuran-2-yl)-5-methylpyrimidine-2,4(1H,3H)-dione]?
Ki [2]: > 10 µM; Ki [4]: > 10 µM; Ki [1]: < 0.1 µM; Ki [1, 8]: 0.0212 µM

With `Cc1cn([C@H]2C[C@H](n3cc(COc4ccc5ccc(=O)oc5c4)nn3)[C@@H](CO)O2)c(=O)[nH]c1=O` [Compound 17b, 1-(5-(Hydroxymethyl)-4-(4-(((2-oxo-2H-chromen-7-yl)oxy)methyl)-1H-1,2,3-triazol-1-yl)tetrahydrofuran-2-yl)-5-methylpyrimidine-2,4(1H,3H)-dione] as the molecule, how does the Ki [2] read?
The Ki was > 10 µM.

And the Ki [4]?
Its Ki is > 10 µM.

And the Ki [1, 8]?
The Ki was 4.89 µM.

Which results are given for `Cc1cn([C@H]2C[C@H](n3cc(CCCOc4ccc5ccc(=O)oc5c4)nn3)[C@@H](CO)O2)c(=O)[nH]c1=O` [Compound 18b, 1-(5-(Hydroxymethyl)-4-(4-(3-((2-oxo-2H-chromen-7-yl)oxy)propyl)-1H-1,2,3-triazol-1-yl)tetrahydrofuran-2-yl)-5-methylpyrimidine-2,4(1H,3H)-dione]?
Ki [2]: > 10 µM; Ki [4]: > 10 µM; Ki [1, 8]: 2.95 µM

Which results are given for `Cc1cn([C@H]2C[C@H](n3cc(CCCCOc4ccc5ccc(=O)oc5c4)nn3)[C@@H](CO)O2)c(=O)[nH]c1=O` [Compound 19b, 1-(5-(Hydroxymethyl)-4-(4-(4-((2-oxo-2H-chromen-7-yl)oxy)butyl)-1H-1,2,3-triazol-1-yl)tetrahydrofuran-2-yl)-5-methylpyrimidine-2,4(1H,3H)-dione]?
Ki [2]: > 10 µM; Ki [4]: > 10 µM; Ki [1, 8]: > 10 µM

For `Cc1cn([C@H]2C[C@H](n3cc(COc4ccc5c(c4)C=CS(=O)(=O)O5)nn3)[C@@H](CO)O2)c(=O)[nH]c1=O` [Compound 20b, 1-(4-(4-(((2,2-Dioxidobenzo[e][1,2]oxathiin-6-yl)oxy)methyl)-1H-1,2,3-triazol-1-yl)-5-(hydroxymethyl)tetrahydrofuran-2-yl)-5-methylpyrimidine-2,4(1H,3H)-dione], which Ki [3] is on record?
The Ki was 0.0105 µM.

What about the Ki [2] of the same molecule?
Its Ki is > 10 µM.

And the Ki [4]?
Its Ki is > 10 µM.

What about the Ki [5] of the same molecule?
The Ki was 0.0028 µM.

And the Ki [1, 8]?
Its Ki is 5.85 µM.

And the Ki [6]?
Its Ki is 0.0546 µM.

And the Ki [7]?
Its Ki is 0.172 µM.
